From patent US6713505B2, “spla2 inhibitors” (Eli Lilly and Company, priority 2000, dated 2004) come the findings set out here.

The target of the experiment is T1, recombinant human secreted phospholipase A2 (Homo sapiens, UniProt P14555).
T1 sequence (P14555 21-144): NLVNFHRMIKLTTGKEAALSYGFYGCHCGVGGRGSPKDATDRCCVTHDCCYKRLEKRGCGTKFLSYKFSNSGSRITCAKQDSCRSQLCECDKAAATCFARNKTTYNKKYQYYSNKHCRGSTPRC
Briefly: chromogenic assay for inhibitors of recombinant human secreted phospholipase A2. It is filed as biochemical. As to conditions: diheptanoyl thio-PC substrate, pH 7.5, 40° C. for 30 minutes, absorbance at 405 nanometers, triplicate. An excerpt:
The following chromogenic assay procedure was used to identify and evaluate inhibitors of recombinant human secreted phospholipase A2. The assay described herein has been adapted for high volume screening using 96 well microtiter plates. A general description of this assay method is found in the article, “Analysis of Human Synovial Fluid Phospholipase A2 on Short Chain Phosphatidylcholine-Mixed Micelles: Development of a Spectrophotometric Assay Suitable for a Microtiterplate Reader”, by Laure J. Reynolds, Lori L. Hughes, and Edward A Dennis, Analytical Biochemistry, 204, pp. 190-197, 1992 (the disclosure of which is incorporated herein by reference):
Adjust pH to 4.5 with acetic acid
DTNB—5,5′-dithiobis-2-nitrobenzoic acid
RACEMIC DIHEPTANOYL THIO—PC
racemic 1,2-bis(heptanoylthio)-1,2-dideoxy-sn-glycero-3-phosphorylcholine
TRITON X-100™ prepare at 6.249 mg/ml in reaction buffer to equal […].
A measured volume of racemic dipheptanoyl thio PC supplied in chloroform at a concentration of 100 mg/ml is taken to dryness and redissolved in 10 millimolar TRITON X-100™ nonionic detergent aqueous solution. Reaction Buffer is added to the solution, then DTNB to give the Reaction Mixture.
The reaction mixture thus obtained contains 1 mM diheptanoly thio-PC substrate, 0.29 mm Triton X-100™ detergent, and 0.12 mm DTMB in a buffered aqueous solution at pH 7.5.
1. Add 0.2 ml reaction mixture to all wells;
2. Add 10 ul test compound (or solvent blank) to appropriate wells, mix 20 seconds;
3. Add 50 nanograms of sPLA2 (10 microliters) to appropriate wells;
4. […]
5. Read absorbance of wells at 405 nanometers with an automatic plate reader.
Tests were done in triplicate. […] Compounds initially found to be active were re-assayed to confirm their activity and, if sufficiently active, IC50 values were determined. […] In all cases, % inhibition measured at 405 nanometers generated by enzyme reactions containing inhibitors relative to the uninhibited control reactions was determined. […] IC50 values were determined by plotting log concentration versus inhibition values in the range from 10-90% inhibition.
What is called IC50 is the concentration needed to halve the response being measured. In the case of `CCc1sc2cccc(OCC(=O)O)c2c1C(=O)C(N)=O` [Example 1, (3-aminooxalyl-2-ethylbenzo[b]thiophen-4-yloxy)acetic acid], the IC50 was 1.41 µM.

Regarding `CCc1sc2cccc(OCC(=O)N[C@@H](CC(C)C)C(=O)O)c2c1C(=O)C(N)=O` [Example 3, 2(S)-[2-[(3-aminooxalyl-2-ethylbenzo [b]thiophen-4-yl)oxy]acetylamino]-4-methylpentanoic acid], the IC50 turned out to be 10.6 µM.

Regarding `CCc1sc2cccc(OCC(=O)N[C@@H](CC(C)C)C(=O)OC)c2c1C(=O)C(N)=O` [Example 2, 2(S)-[2-[(3-aminooxalyl-2-ethylbenzo [b]thiophen-4-yl)oxy]acetylamino]-4-methylpentanoic cid methylester], the IC50 was determined as 64.8 µM.
